We go through 2 compounds from the kinase profiling compilation of Christmann-Franck et al. (2016).

What all share (experiment): KINOMEscan competition binding
Common to all, as to details: compound 10.0 µM

Experiment [1] deals with ALK (human), Q9UM73 [C1156Y].
In experiment [2] the test system is ALK (human), Q9UM73 [L1196M].
In a further experiment the target is GSG2 (human) (UniProt Q8TF76).
A further experiment addresses NEK10 (human) (UniProt Q6ZWH5).
Another experiment deals with WNK3 (human) (UniProt Q9BYP7).
WNK3 (human), sequence (Q9BYP7 whole entry, looked up): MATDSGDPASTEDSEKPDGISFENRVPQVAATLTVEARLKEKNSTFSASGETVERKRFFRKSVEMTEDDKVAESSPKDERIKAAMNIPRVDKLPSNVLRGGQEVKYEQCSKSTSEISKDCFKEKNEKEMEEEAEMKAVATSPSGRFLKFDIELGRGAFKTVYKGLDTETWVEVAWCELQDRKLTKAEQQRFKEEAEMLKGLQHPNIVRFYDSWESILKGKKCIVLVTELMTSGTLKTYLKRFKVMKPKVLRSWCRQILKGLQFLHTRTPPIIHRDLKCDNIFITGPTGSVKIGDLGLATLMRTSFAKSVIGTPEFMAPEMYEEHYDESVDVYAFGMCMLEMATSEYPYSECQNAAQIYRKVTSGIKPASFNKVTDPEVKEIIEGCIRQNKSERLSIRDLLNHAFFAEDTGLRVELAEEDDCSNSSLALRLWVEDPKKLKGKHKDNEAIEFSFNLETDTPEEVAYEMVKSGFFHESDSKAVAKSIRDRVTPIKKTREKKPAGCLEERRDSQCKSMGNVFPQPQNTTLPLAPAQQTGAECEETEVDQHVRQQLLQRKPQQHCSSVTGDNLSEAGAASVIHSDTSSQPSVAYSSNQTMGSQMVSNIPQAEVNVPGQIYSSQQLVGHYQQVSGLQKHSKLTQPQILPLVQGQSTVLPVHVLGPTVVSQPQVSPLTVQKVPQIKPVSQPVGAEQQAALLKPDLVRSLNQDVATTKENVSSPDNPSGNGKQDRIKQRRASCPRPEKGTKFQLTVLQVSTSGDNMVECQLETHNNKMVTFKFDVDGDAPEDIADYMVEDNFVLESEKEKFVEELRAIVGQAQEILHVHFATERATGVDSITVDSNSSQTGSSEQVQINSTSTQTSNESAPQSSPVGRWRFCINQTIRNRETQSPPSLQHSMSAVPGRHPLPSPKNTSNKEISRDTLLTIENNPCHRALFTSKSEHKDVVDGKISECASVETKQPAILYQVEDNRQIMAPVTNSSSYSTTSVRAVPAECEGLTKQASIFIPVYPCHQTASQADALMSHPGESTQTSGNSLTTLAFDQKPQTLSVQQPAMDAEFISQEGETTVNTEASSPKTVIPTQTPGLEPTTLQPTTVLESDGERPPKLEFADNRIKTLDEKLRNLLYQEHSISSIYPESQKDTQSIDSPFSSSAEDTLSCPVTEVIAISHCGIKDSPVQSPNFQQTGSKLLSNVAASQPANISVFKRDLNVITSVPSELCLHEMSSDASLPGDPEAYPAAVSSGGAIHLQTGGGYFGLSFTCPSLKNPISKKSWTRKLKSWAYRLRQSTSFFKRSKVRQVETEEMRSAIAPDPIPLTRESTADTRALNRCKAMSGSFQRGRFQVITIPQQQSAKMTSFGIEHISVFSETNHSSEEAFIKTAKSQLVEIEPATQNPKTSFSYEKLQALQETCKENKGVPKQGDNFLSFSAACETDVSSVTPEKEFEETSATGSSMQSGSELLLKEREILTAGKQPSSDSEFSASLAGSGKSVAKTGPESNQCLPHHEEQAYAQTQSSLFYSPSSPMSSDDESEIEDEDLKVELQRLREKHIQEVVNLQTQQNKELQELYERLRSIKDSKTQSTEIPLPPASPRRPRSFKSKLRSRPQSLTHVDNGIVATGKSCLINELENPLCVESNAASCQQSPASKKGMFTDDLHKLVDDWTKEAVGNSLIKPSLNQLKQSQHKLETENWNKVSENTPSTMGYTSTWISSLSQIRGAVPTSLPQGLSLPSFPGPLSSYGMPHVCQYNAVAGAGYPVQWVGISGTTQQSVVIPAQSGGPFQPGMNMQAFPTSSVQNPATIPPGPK

GSG2 (human), sequence (Q8TF76 whole entry, looked up): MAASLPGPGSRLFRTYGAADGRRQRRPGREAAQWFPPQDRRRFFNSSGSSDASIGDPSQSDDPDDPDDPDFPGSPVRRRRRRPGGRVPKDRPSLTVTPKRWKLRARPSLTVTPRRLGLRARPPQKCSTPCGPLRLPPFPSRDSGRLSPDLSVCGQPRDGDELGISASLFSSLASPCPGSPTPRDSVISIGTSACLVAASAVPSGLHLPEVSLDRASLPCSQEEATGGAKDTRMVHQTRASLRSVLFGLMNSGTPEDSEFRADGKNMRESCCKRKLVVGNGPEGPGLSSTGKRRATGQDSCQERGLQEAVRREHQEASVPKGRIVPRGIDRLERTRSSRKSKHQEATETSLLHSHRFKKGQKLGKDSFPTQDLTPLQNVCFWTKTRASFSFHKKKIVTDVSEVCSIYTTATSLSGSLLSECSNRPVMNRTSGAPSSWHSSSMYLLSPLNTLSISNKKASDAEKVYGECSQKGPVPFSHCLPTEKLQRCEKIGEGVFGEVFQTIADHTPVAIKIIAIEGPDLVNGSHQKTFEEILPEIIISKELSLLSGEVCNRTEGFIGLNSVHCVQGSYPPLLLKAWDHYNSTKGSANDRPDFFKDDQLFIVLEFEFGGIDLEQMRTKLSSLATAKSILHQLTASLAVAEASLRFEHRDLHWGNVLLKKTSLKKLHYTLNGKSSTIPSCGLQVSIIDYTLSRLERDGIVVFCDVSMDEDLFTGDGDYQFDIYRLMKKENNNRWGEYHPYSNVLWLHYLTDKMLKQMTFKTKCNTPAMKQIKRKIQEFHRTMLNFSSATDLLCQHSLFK
ALK (human), Q9UM73 [L1196M], sequence (Q9UM73 whole entry L1196M, looked up): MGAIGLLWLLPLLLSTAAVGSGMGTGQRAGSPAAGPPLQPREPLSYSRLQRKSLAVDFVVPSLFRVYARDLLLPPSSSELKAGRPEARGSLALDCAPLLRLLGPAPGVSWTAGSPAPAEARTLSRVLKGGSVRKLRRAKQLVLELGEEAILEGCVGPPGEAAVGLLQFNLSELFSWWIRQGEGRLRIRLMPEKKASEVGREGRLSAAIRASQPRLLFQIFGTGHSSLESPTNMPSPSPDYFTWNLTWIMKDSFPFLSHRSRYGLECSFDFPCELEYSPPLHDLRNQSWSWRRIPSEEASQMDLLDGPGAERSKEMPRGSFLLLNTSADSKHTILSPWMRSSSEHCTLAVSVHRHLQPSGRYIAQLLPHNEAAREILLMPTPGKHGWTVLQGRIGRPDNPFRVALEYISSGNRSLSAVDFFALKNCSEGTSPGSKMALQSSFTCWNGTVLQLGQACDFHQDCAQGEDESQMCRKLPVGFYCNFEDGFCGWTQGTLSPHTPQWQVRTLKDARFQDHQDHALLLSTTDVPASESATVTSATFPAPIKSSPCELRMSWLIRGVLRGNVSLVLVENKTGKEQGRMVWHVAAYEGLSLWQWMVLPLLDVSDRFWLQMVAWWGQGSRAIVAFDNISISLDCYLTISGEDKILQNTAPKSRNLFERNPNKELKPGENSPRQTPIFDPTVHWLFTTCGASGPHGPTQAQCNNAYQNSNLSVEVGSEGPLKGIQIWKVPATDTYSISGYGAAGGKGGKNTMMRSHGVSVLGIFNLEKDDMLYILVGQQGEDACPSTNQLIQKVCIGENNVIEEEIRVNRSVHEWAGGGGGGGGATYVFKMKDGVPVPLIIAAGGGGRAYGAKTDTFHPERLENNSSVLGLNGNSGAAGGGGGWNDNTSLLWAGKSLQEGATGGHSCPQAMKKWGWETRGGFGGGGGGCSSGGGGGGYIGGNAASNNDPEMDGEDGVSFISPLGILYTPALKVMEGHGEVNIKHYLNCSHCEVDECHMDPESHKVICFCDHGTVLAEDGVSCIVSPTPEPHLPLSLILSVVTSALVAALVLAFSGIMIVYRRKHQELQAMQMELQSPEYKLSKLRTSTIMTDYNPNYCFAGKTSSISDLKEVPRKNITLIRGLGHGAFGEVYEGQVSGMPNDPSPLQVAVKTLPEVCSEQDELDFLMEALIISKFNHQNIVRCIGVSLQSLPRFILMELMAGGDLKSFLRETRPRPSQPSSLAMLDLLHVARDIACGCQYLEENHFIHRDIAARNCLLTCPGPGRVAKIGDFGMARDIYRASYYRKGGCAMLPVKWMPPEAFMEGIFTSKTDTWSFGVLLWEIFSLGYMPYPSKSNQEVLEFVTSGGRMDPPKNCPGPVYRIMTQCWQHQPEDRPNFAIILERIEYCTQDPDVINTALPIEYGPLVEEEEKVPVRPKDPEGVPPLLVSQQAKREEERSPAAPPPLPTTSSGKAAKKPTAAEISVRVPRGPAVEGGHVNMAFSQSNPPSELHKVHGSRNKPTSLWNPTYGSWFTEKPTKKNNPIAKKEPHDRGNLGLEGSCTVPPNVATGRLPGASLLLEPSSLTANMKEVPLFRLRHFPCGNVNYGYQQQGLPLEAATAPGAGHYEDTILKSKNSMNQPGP
ALK (human), Q9UM73 [C1156Y], sequence (Q9UM73 whole entry C1156Y, looked up): as the sequence (Q9UM73 whole entry L1196M, looked up) above, with C1156Y, M1196L counted along it

On to `O=C1NC(=O)/C(=C/c2ccc3nccc(-c4ccncc4)c3c2)S1`, for which the kinase still bound, per cent of control in experiment [1] stood at 42%; in experiment [2] it was 45%; on GSG2 (human) it was 6.2%; at NEK10 (human), 0%; at WNK3 (human), 86%.

As to `N#CCNC(=O)c1ccc(-c2ccnc(Nc3ccc(N4CCOCC4)cc3)n2)cc1`, the values for the kinase still bound, per cent of control at GSG2 (human) and on WNK3 (human) were 67% and 90%, respectively.
